One data set has as its target KRas G12C (Homo sapiens, UniProt P01116, G12C). As to the kind of experiment: Cellular inhibition of KRas G12C measured by Phospho-ERK in NCI-H358 cells. Format: cell-based. The note with it: pERK(Thr202/Tyr204) normalized with GAPDH, NCI-H358 cells, 3 hours; read-out: IC50. Summed up: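 NCI-H358 cells were allowed to attach for 8-12 hours, then exposed to compounds for 3 hours at 0.5% DMSO final. After formaldehyde fixation and methanol permeabilization, phospho-ERK (Thr202/Tyr204) was detected by in-cell immunofluorescence and normalized to GAPDH; IC50 came from a 4-parameter fit of percent-of-DMSO values.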

Data set [1] is described as follows: In vitro stability in human whole blood. Format: in vitro ADME. The note with it: male, whole blood diluted to 50% with PBS, pH 7.4, human whole blood diluted to 50% with PBS, 5 μM, 37° C., 240-minute incubation, read-out: Compound Half-life. From the text: Materials: The following reagents were used as received: acetonitrile (HPLC grade, Burdick & Jackson, Madison, Wis.), phosphate buffered saline (PBS), pH 7.4 (Sigma-Aldrich, Co., St. Louis, Mo.), water (HPLC grade, JT Baker, Phillipsburg, N.J.), DMSO (EM Science, Merck KGaA, Darmstadt, Germany) and isopropanol (IPA, reagent grade, EMD Chemicals, Gibbstown, N.J.). Propantheline and esmolol (Sigma-Aldrich) were used as the positive control compounds in the assay. Diazepam (Sigma-Aldrich) was used as an internal standard for quantitation. Human whole blood was obtained from BioIVT (Westbury, N.Y.) […]. All other reagents and solvents were of the highest analytical grade supplied by Sigma (St. Louis, Mo.) and were used as received.
Blood Incubations: The in vitro stability of representative KRas G12C inhibitor compounds of the present invention in the presence whole blood was conducted in the following manner. Esmolol or propantheline, which are known to undergo ester hydrolysis by esterases in blood and plasma, were used as the positive controls in the assays. A 10 mM stock solution of propantheline, esmolol, or a compound of the present invention in DMSO was diluted to 500 μM with DMSO. Aliquots of whole blood (600 μL), in triplicate, were placed in the appropriate wells of a polypropylene 96-deep well plate (Axygen Scientific, Union City, Calif.). The blood was diluted to 50% using PBS, pH 7.4 (600 μL). The diluted blood was pre-incubated for 15 minutes at 37° C. Each well was dosed with 12 μL of the 500 μM DMSO stock simultaneously for a final test concentration of 5 μM. The plates were mixed at 600 rpm for 10 seconds on a plate shaker (IKA MTS 2/4 Digital Microtiter Shaker, VWR). Aliquots of 100 μL from each well of whole blood were transferred to three separate 96-deep well plates labeled 0, 60, or 240 minutes. At the end of each designated time point, the red blood cells were lysed with 100 μL of water, mixed at 600 rpm for one minute, and stopped with 800 μL of acetonitrile containing IS (0.625 μM diazepam). The plates were mixed on the plate shaker at 600 rpm for one minute and spun in a centrifuge at 2095×g for 7 minutes at room temperature using an Allegra benchtop centrifuge (Beckman Coulter, Fullerton, Calif.). Supernatant (100 μL) was transferred to a shallow 96-well plate (Costar) using a liquid sample handling system (Apricot, Perkin-Elmer, Boston, Mass.). The addition of 100 μL of water was added to each sample of supernatant for a final volume of 200 μL. The plates were sealed and the contents of each well were analyzed by LC-MS/MS.
Analytical quantitation: The LC-MS/MS system was comprised of an HTS-PAL autosampler (Leap Technologies, Carrboro, N.C.), an HP1200 HPLC (Agilent, Palo Alto, Calif.), and an API4000 triple quadrupole mass spectrometer (PE Sciex, a division of Applied Biosystems, Foster City, Calif.). […] The total run time, including re-equilibration, for a single injection was 2 minutes. Mass spectrometric detection of the analytes was accomplished using the ESI ionization mode. Ion current was optimized during infusion of a stock solution of propantheline, esmolol, or the representative test compound. Analyte responses, including the IS were measured by multiple reaction monitoring (MRM) of transitions unique to each compound.
Calculations: Data were acquired and peak areas were calculated for test compounds and the internal standard using Analyst 1.6.2 software (Sciex). The mean peak area ratios were calculated by averaging the peak area ratios (n=3) of each test compound and the IS for each sample.
Peak area tables were exported to BioAssay Enterprise (CambridgeSoft, Cambridge, Mass.), where the average analyte-to-internal standard peak area ratios were used to calculate percent remaining (% REM) and half-life (t1/2). Percent remaining (f) was calculated by determining the ratio of the peak area ratio at each time point to the peak area ratio of the time-zero samples. […]

Structures are written as SMILES.

Sequence of KRas G12C (P01116 1-188 isoform P01116-2 G12C): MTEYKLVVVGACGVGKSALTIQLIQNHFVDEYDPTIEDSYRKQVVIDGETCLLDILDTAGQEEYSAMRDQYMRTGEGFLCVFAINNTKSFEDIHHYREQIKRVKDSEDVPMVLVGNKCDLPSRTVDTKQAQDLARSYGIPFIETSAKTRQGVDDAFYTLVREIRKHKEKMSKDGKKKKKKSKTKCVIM

The term IC50 denotes the concentration that gives 50% inhibition. A word on the half-life: it is the time in which the quantity being followed falls by half. `C=C(COC)C(=O)N1CCN(c2nc(OC[C@@H]3CCCN3C)nc3c2CCN(c2cccc4cccc(Cl)c24)C3)C[C@@H]1CC#N` [Example 485, 2-[(2S)-4-[7-(8-chloro-1-naphthyl)-2-[[(2S)-1-methylpyrrolidin-2-yl]methoxy]-6,8-dihydro-5H-pyrido[3,4-d]pyrimidin-4-yl]-1-[2-(methoxymethyl)prop-2-enoyl]piperazin-2-yl]acetonitrile]: on KRas G12C, the concentration for half-maximal inhibition (IC50) was in the range of 0.1 to 1000 nM. Moreover, the half-life at 5 µM in data set [1] was above 33.3 h.

With `Cc1cccc2cccc(N3CCc4c(nc(OC[C@@H]5CCCN5C)nc4N4CCN(C(=O)/C=C/C(F)(F)F)[C@@H](CC#N)C4)C3)c12` [Example 491, 2-((S)-4-(7-(8-methylnaphthalen-1-yl)-2-(((S)-1-methylpyrrolidin-2-yl)methoxy)-5,6,7,8-tetrahydropyrido[3,4-d]pyrimidin-4-yl)-1-((E)-4,4,4-trifluorobut-2-enoyl)piperazin-2-yl)acetonitrile], on KRas G12C, the half-maximal inhibitory concentration (IC50) was 0.1 to 1000 nM. Further, the half-life at 5 µM in data set [1] is at most 3.33 h.

For the compound `CN1CCC[C@H]1COc1nc2c(c(N3CCN(C(=O)/C=C/CN4CCCCC4)[C@@H](CC#N)C3)n1)CCN(c1cccc3ccccc13)C2` [Example 236, 2-((S)-4-(2-(((S)-1-methylpyrrolidin-2-yl)methoxy)-7-(naphthalen-1-yl)-5,6,7,8-tetrahydropyrido[3,4-d]pyrimidin-4-yl)-1-(E-4-(piperidin-1-yl)but-2-enoyl)piperazin-2-yl)acetonitrile], the IC50 at KRas G12C fell in the range of 0.1 to 1000 nM. Moreover, the half-life at 5 µM in data set [1] fell in the range of 3.33 to 16.7 h.

Turning to `Cc1cccc2cccc(N3CCc4c(nc(OC[C@H]5CCCN5C)nc4N4CCN(C(=O)/C=C/CO)[C@@H](CC#N)C4)C3)c12` [Example 517, 2-((S)-1-((E)-4-hydroxybut-2-enoyl)-4-(7-(8-methylnaphthalen-1-yl)-2-(((R)-1-methylpyrrolidin-2-yl)methoxy)-5,6,7,8-tetrahydropyrido[3,4-d]pyrimidin-4-yl)piperazin-2-yl)acetonitrile], on KRas G12C, the half-inhibitory concentration (IC50) lay in the range of 0.1 to 1000 nM. Besides, the half-life at 5 µM in data set [1] lay in the range of 16.7 to 33.3 h.

As for `CN1CCC[C@H]1COc1nc2c(c(N3CCN(C(=O)/C=C/CF)[C@@H](CC#N)C3)n1)CCN(c1cccc3cccc(Cl)c13)C2` [Example 479, 2-[(2S)-4-[7-(8-chloro-1-naphthyl)-2-[[(2S)-1-methylpyrrolidin-2-yl]methoxy]-6,8-dihydro-5H-pyrido[3,4-d]pyrimidin-4-yl]-1-[(E)-4-fluorobut-2-enoyl]piperazin-2-yl]acetonitrile], the concentration for half-maximal inhibition (IC50) at KRas G12C is 0.1 to 1000 nM. The half-life at 5 µM in data set [1] is above 33.3 h.

Consider `CN(C/C=C/C(=O)N1CCN(c2nc(OC[C@@H]3CCCN3C)nc3c2CCN(c2cccc4cccc(Cl)c24)C3)C[C@@H]1CC#N)CC(F)(F)F` [Example 482, 2-[(2S)-4-[7-(8-chloro-1-naphthyl)-2-[[(2S)-1-methylpyrrolidin-2-yl]methoxy]-6,8-dihydro-5H-pyrido[3,4-d]pyrimidin-4-yl]-1-[(E)-4-[methyl(2,2,2-trifluoroethyl)amino]but-2-enoyl]piperazin-2-yl]acetonitrile], for which, at KRas G12C, the IC50 was 0.1 to 1000 nM. Further, in data set [1], the half-life at 5 µM was above 33.3 h.

`COC/C=C/C(=O)N1CCN(c2nc(OC[C@@H]3CCCN3C)nc3c2CCN(c2cccc4cccc(Cl)c24)C3)C[C@@H]1CC#N` [Example 524, 2-((S)-4-(7-(8-chloronaphthalen-1-yl)-2-(((S)-1-methylpyrrolidin-2-yl)methoxy)-5,6,7,8-tetrahydropyrido[3,4-d]pyrimidin-4-yl)-1-((E)-4-methoxybut-2-enoyl)piperazin-2-yl)acetonitrile]: the IC50 on KRas G12C lay within 0.1 to 1000 nM. In data set [1], the half-life at 5 µM was above 33.3 h.

Take `CN1CCC[C@H]1COc1nc2c(c(N3CCN(C(=O)/C=C/CN4CC(F)C4)[C@@H](CC#N)C3)n1)CCN(c1cccc3cccc(Cl)c13)C2` [Example 481, 2-[(2S)-4-[7-(8-chloro-1-naphthyl)-2-[[(2S)-1-methylpyrrolidin-2-yl]methoxy]-6,8-dihydro-5H-pyrido[3,4-d]pyrimidin-4-yl]-1-[(E)-4-(3-fluoroazetidin-1-yl)but-2-enoyl]piperazin-2-yl]acetonitrile]: the concentration for half-maximal inhibition (IC50) on KRas G12C lay in the range of 0.1 to 1000 nM. For the same compound, the half-life at 5 µM in data set [1] was above 33.3 h.

Take `Cc1cccc2cccc(N3CCc4c(nc(OC[C@@H]5CCCN5C)nc4N4CCN(C(=O)/C=C/CO)[C@@H](CC#N)C4)C3)c12` [Example 510, 2-((S)-1-((E)-4-hydroxybut-2-enoyl)-4-(7-(8-methylnaphthalen-1-yl)-2-(((S)-1-methylpyrrolidin-2-yl)methoxy)-5,6,7,8-tetrahydropyrido[3,4-d]pyrimidin-4-yl)piperazin-2-yl)acetonitrile]: the half-maximal inhibitory concentration (IC50) on KRas G12C fell in the range of 0.1 to 1000 nM. In addition, the half-life at 5 µM in data set [1] is 16.7 to 33.3 h.

On to `CN1CCC[C@H]1COc1nc2c(c(N3CCN(C(=O)/C=C/CN4CCC(F)C4)[C@@H](CC#N)C3)n1)CCN(c1cccc3cccc(Cl)c13)C2` (stereo partly drawn) [Example 480, 2-[(2S)-4-[7-(8-chloro-1-naphthyl)-2-[[(2S)-1-methylpyrrolidin-2-yl]methoxy]-6,8-dihydro-5H-pyrido[3,4-d]pyrimidin-4-yl]-1-[(E)-4-(3-fluoropyrrolidin-1-yl)but-2-enoyl]piperazin-2-yl]acetonitrile], for which the half-maximal inhibitory concentration (IC50) at KRas G12C lay within 0.1 to 1000 nM. In addition, the half-life at 5 µM in data set [1] is above 33.3 h.

On to `Cc1cccc2cccc(N3CCc4c(nc(OC[C@@H]5CCCN5C)nc4N4CCN(C(=O)/C=C/C#N)[C@@H](CC#N)C4)C3)c12` [Example 501, (E)-4-((S)-2-(cyanomethyl)-4-(7-(8-methylnaphthalen-1-yl)-2-(((S)-1-methylpyrrolidin-2-yl)methoxy)-5,6,7,8-tetrahydropyrido[3,4-d]pyrimidin-4-yl)piperazin-1-yl)-4-oxobut-2-enenitrile], for which the IC50 on KRas G12C is 0.1 to 1000 nM. Also, the half-life at 5 µM in data set [1] is at most 3.33 h.

For `C=C(OC)C(=O)N1CCN(c2nc(OC[C@@H]3CCCN3C)nc3c2CCN(c2cccc4cccc(C)c24)C3)C[C@@H]1CC#N` [Example 512, 2-[(2S)-1-(2-methoxyprop-2-enoyl)-4-[7-(8-methyl-1-naphthyl)-2-[[(2S)-1-methylpyrrolidin-2-yl]methoxy]-6,8-dihydro-5H-pyrido[3,4-d]pyrimidin-4-yl]piperazin-2-yl]acetonitrile], the IC50 at KRas G12C is above 1000 nM. The half-life at 5 µM in data set [1] is above 33.3 h.

`CN1CCC[C@H]1COc1nc2c(c(N3CCN(C(=O)/C=C/C(F)(F)F)[C@@H](CC#N)C3)n1)CCN(c1cccc3cccc(Cl)c13)C2` [Example 490, 2-((S)-4-(7-(8-chloronaphthalen-1-yl)-2-(((S)-1-methylpyrrolidin-2-yl)methoxy)-5,6,7,8-tetrahydropyrido[3,4-d]pyrimidin-4-yl)-1-((E)-4,4,4-trifluorobut-2-enoyl)piperazin-2-yl)acetonitrile]: on KRas G12C, the IC50 was in the range of 0.1 to 1000 nM. The half-life at 5 µM in data set [1] is at most 3.33 h.

For the compound `CN1CCC[C@H]1COc1nc2c(c(N3CCN(C(=O)/C=C/CN4CCOCC4)[C@@H](CC#N)C3)n1)CCN(c1cccc3cccc(Cl)c13)C2` [Example 367, 2-[(2S)-4-[7-(8-chloro-1-naphthyl)-2-[[(2S)-1-methylpyrrolidin-2-yl]methoxy]-6,8-dihydro-5H-pyrido[3,4-d]pyrimidin-4-yl]-1-[(E)-4-morpholinobut-2-enoyl]piperazin-2-yl]acetonitrile], the concentration for half-maximal inhibition (IC50) at KRas G12C was in the range of 0.1 to 1000 nM. In addition, in data set [1], the half-life at 5 µM lay in the range of 16.7 to 33.3 h.

The values are drawn from patent publication US10689377B2 (Mirati Therapeutics, Inc., priority 2017, dated 2020).
